Data taken from ChEMBL document CHEMBL3779861, “Selective Inhibition of CBX6: A Methyllysine Reader Protein in the Polycomb Family” (ACS Med Chem Lett, 2016).
Non-standard residues stand in square brackets, D forms with d. Residues, ends and D or L forms follow the SMILES beside them. *: point of attachment. X1 = O=C(O)c1cc(NC(=S)*)ccc1-c1c2ccc(=O)cc-2oc2cc(O)ccc12; Biotin = O=C1N[C@H]2[C@H](CS[C@H]2CCCCC(=O)*)N1; Lys(Me3) = C[N+](C)(C)CCCC[C@H](N)C(=O)O; Benzoyl(4-Br) = O=C(c1ccc(Br)cc1)*; Abu = CC[C@H](N)C(=O)O

Tests used:
[1] = target: T1, Chromobox protein homolog 7 (Homo sapiens, UniProt O95931); experiment: Binding affinity to N-terminal His6-tagged human CBX7 (8 to 62 residues) expressed in Escherichia coli BL21 by surface plasmon resonance assay
T1 sequence (O95931 whole entry): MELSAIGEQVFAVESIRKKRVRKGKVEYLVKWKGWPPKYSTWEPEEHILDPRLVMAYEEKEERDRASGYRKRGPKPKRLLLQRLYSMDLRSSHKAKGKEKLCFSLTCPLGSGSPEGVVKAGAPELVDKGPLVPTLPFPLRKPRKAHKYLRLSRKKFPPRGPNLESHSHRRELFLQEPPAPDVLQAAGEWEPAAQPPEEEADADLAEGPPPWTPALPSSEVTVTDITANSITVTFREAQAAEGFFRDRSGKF

[2] = target: Chromobox protein homolog 7 (Homo sapiens, UniProt O95931, V13A); experiment: Binding affinity to human CBX7 V13A mutant expressed in Escherichia coli BL21 by surface plasmon resonance assay
[3] = target: T2, Chromobox protein homolog 6 (Homo sapiens, UniProt O95503); experiment: Binding affinity to N-terminal His6-tagged human CBX6 (8 to 65 residues) expressed in Escherichia coli BL21 by surface plasmon resonance assay
T2 sequence (O95503 whole entry): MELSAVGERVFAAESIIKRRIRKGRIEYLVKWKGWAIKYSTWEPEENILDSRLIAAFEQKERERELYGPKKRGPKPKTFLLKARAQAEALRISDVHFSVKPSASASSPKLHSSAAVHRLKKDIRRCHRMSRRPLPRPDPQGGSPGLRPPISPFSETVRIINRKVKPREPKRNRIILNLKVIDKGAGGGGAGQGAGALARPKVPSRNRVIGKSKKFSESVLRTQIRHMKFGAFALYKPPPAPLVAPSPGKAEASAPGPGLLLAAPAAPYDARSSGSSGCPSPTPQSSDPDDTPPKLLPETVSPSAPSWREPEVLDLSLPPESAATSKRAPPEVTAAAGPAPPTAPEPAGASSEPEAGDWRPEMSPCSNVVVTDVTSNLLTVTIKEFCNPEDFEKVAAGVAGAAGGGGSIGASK

[4] = target: T1, Chromobox protein homolog 7; experiment: Binding affinity to N-terminal His6-tagged human CBX7 (8 to 62) expressed in Escherichia coli BL21 using FITC-peptide-3 as competitive binding probe by fluorescence polarization assay
[5] = target: T3, Chromobox protein homolog 2 (Homo sapiens, UniProt Q14781); experiment: Binding affinity to N-terminal His6-tagged human CBX2 (8 to 62) expressed in Escherichia coli BL21 using FITC-peptide-3 as competitive binding probe by fluorescence polarization assay
T3 sequence (Q14781 whole entry): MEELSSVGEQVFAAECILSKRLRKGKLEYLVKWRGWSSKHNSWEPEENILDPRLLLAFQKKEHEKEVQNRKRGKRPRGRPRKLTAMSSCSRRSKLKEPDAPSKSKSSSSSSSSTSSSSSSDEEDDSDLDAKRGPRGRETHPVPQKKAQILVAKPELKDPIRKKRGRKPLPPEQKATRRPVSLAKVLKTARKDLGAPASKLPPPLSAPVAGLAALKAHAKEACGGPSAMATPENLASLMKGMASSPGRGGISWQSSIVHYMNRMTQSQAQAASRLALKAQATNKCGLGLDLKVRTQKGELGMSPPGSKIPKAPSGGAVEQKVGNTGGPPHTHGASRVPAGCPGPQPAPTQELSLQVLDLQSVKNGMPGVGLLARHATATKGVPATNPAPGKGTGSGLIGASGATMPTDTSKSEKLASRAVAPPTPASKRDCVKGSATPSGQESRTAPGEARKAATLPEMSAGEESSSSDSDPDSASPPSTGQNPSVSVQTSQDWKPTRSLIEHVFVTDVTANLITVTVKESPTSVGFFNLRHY

[6] = target: T4, Chromobox protein homolog 8 (Homo sapiens, UniProt Q9HC52); experiment: Binding affinity to N-terminal His6-tagged human CBX8 (8 to 61 residues) expressed in Escherichia coli BL21 using FITC-peptide-3 as competitive binding probe by fluorescence polarization assay
T4 sequence (Q9HC52 whole entry): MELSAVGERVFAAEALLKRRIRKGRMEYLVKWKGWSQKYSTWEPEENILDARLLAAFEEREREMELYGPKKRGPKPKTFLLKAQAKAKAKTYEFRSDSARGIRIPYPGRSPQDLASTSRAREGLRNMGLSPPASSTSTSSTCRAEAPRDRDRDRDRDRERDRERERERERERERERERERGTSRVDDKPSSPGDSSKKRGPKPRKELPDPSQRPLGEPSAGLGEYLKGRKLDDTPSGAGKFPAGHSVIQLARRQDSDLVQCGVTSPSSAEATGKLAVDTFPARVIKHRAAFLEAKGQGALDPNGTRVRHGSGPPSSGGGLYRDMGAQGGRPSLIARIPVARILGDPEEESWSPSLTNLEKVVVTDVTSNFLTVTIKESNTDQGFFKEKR

[7] = target: T5, E3 SUMO-protein ligase CBX4 (Homo sapiens, UniProt O00257); experiment: Binding affinity to N-terminal His6-tagged human CBX4 (8 to 65 residues) expressed in Escherichia coli BL21 using FITC-peptide-3 as competitive binding probe by fluorescence polarization assay
T5 sequence (O00257 whole entry): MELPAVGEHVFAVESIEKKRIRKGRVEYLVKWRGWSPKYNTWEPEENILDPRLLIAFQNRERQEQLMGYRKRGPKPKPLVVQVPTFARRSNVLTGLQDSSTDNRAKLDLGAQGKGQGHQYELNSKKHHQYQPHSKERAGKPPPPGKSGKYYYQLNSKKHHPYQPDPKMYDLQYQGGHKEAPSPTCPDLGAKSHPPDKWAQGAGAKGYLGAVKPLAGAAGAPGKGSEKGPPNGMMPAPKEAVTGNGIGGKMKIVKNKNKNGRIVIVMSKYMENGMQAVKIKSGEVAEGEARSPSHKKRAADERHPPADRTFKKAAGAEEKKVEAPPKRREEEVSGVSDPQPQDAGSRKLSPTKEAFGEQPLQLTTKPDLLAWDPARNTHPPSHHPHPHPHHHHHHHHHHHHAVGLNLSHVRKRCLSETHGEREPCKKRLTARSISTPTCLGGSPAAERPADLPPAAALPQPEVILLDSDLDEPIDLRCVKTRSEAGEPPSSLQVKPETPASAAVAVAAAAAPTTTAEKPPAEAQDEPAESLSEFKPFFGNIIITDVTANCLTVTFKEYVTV

[8] = target: T2, Chromobox protein homolog 6; experiment: Binding affinity to N-terminal His6-tagged human CBX6 (8 to 65 residues) expressed in Escherichia coli BL21 using FITC-peptide-3 as competitive binding probe by fluorescence polarization assay
[9] = target: Chromobox protein homolog 1 (Homo sapiens, UniProt P83916)
Chain of Chromobox protein homolog 1 (P83916 whole entry): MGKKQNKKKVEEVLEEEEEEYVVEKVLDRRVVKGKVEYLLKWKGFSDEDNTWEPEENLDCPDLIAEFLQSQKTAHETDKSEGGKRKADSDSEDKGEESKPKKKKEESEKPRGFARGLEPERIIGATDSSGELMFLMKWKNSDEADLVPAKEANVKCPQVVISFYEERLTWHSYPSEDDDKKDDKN

Chain of Chromobox protein homolog 7 (Homo sapiens, UniProt O95931, V13A) (O95931 whole entry V13A, the tested form may be a part): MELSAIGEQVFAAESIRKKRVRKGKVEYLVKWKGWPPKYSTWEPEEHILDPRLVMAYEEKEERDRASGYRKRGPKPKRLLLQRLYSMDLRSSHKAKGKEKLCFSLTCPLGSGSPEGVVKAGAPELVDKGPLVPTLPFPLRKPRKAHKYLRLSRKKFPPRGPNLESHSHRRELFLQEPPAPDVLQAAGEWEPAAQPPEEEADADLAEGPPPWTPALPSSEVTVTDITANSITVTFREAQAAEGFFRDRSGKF

| Kd [1] [nM] | Kd [2] [nM] | Kd [3] [nM] | IC50 [4] [nM] | Kd [5] [nM] | Kd [6] [nM] | Kd [7] [nM] | Kd [8] [nM] | Kd [9] [nM] | Kd [4] [nM] | Structure (SMILES) |
| --- | --- | --- | --- | --- | --- | --- | --- | --- | --- | --- |
| 34000 | 24000 | 910 |  |  |  |  |  |  |  | CC(C)[C@H](NC(=O)[C@H](Cc1ccccc1)NC(=O)c1ccc(Br)cc1)C(=O)N[C@@H](Cc1ccc(O)cc1)C(=O)N[C@@H](CCCC[N+](C)(C)C)C(=O)N[C@@H](CO)C(=O)N[C@@H](CCC(=O)O)C(=O)N[C@@H](CCCCNC(=O)CCCC[C@@H]1SC[C@@H]2NC(=O)N[C@@H]21)C(N)=O ({Benzoyl(4-Br)}-FVY[Lys(Me3)]SEK(Biotin)-NH2) |
|  |  |  |  | 1600 | 1000 | 800 | 800 | 75000 | 400 | CC[C@H](NC(=O)[C@H](Cc1ccccc1)NC(=O)c1ccc(Br)cc1)C(=O)N[C@@H](Cc1ccc(O)cc1)C(=O)N[C@@H](CCCC[N+](C)(C)C)C(=O)N[C@@H](CO)C(=O)N[C@@H](CCC(=O)O)C(=O)N[C@@H](CCCCNC(=S)Nc1ccc(-c2c3ccc(=O)cc-3oc3cc(O)ccc23)c(C(=O)O)c1)C(N)=O ({Benzoyl(4-Br)}-F[Abu]Y[Lys(Me3)]SEK(X1)-NH2) |
|  |  |  |  | 300 | 1000 | 200 | 300 | 5500 | 100 | C[C@H](NC(=O)[C@H](Cc1ccccc1)NC(=O)c1ccc(Br)cc1)C(=O)N[C@@H](Cc1ccc(O)cc1)C(=O)N[C@@H](CCCC[N+](C)(C)C)C(=O)N[C@@H](CO)C(=O)N[C@@H](CCC(=O)O)C(=O)N[C@@H](CCCCNC(=S)Nc1ccc(-c2c3ccc(=O)cc-3oc3cc(O)ccc23)c(C(=O)O)c1)C(N)=O ({Benzoyl(4-Br)}-FAY[Lys(Me3)]SEK(X1)-NH2) |

The next lines start with the compound.

| Structure (SMILES) | Kd [1] [nM] | Kd [2] [nM] | Kd [3] [nM] | IC50 [4] [nM] | Kd [5] [nM] | Kd [6] [nM] | Kd [7] [nM] | Kd [8] [nM] | Kd [9] [nM] | Kd [4] [nM] |
| --- | --- | --- | --- | --- | --- | --- | --- | --- | --- | --- |
| C[C@H](NC(=O)[C@H](Cc1ccccc1)NC(=O)c1ccc(Br)cc1)C(=O)N[C@@H](Cc1ccc(O)cc1)C(=O)N[C@@H](CCCC[N+](C)(C)C)C(=O)N[C@@H](CO)C(=O)N[C@@H](CCC(=O)O)C(=O)N[C@@H](CCCCNC(=O)CCCC[C@@H]1SC[C@@H]2NC(=O)N[C@@H]21)C(N)=O ({Benzoyl(4-Br)}-FAY[Lys(Me3)]SEK(Biotin)-NH2) | 160 | 290 | 110 |  |  |  |  |  |  |  |
| C[C@H](NC(=O)[C@H](Cc1ccccc1)NC(=O)c1ccc(Br)cc1)C(=O)N[C@@H](Cc1ccc(O)cc1)C(=O)N[C@@H](CCCC[N+](C)(C)C)C(=O)N[C@@H](CO)C(N)=O ({Benzoyl(4-Br)}-FAY[Lys(Me3)]S-NH2) |  |  |  | 1700 |  |  |  |  |  |  |
| CC(C)[C@H](NC(=O)[C@H](Cc1ccccc1)NC(=O)c1ccc(Br)cc1)C(=O)N[C@@H](Cc1ccc(O)cc1)C(=O)N[C@@H](CCCC[N+](C)(C)C)C(=O)N[C@@H](CO)C(=O)N[C@@H](CCC(=O)O)C(=O)N[C@@H](CCCCNC(=S)Nc1ccc(-c2c3ccc(=O)cc-3oc3cc(O)ccc23)c(C(=O)O)c1)C(N)=O ({Benzoyl(4-Br)}-FVY[Lys(Me3)]SEK(X1)-NH2) |  |  |  |  | 17600 | 6000 | 15500 | 900 | 78400 | 5300 |
